System: rainbow trout hepatocytes
Assay: In vitro hepatocyte clearance assay (substrate depletion), trout
Type: in vitro ADME, Oncorhynchus mykiss
Conditions: 15 °C, 4 h, 2 µM MXC / 0.5 µM BaP, mean over in vitro runs
Description: Isolation of hepatocytes from liver of rainbow trout was performed by a two-step collagenase perfusion procedure which is well established for rainbow trout ([Nabb et al., 2006]; [Fay et al., 2015]). […] In previous studies with common carp, an in vitro digestion method was used to isolate hepatocytes ([Cowan-Ellsberry et al., 2008]; [Dyer et al., 2008]). Here, we adopted the method of [Segner et al. (1993)] who used a two-step collagenase perfusion of carp liver via the Arteria coeliaca for cell isolation. With the perfusion method, the percentage of pancreatic cells in the final cell suspension is typically <5% ([Vogt and Segner, 1997]). Cryopreservation and thawing procedures applied for hepatocytes of both species were based on the standard protocols for rainbow trout ([Fay et al., 2014a]; [Fay et al., 2014b]). The viability of the cells was determined by means of the trypan blue exclusion assay and counting of stained and non-stained cells in a hemocytometer. The carp and trout primary hepatocyte suspensions used in the present study were aliquots of the in vitro preparations used in a previous study investigating the in vitro metabolite patterns of MXC ([Bischof et al., 2016]). A detailed description of the methods and materials used for the preparation of hepatocyte suspensions including the procedures for cell isolation, cryopreservation, and thawing, as well as cell counting, diluting to the target cell concentration, and heat-inactivating can therefore be taken from [Bischof et al. (2016)] and from the cited publications.
The in vitro hepatocyte clearance experiments were performed in a substrate depletion approach according to the methods previously published by [Fay et al. (2014b)]. These methods are in accordance with the procedures provided in the OECD TG 319A on the performance of in vitro hepatocyte clearance assays. In the present study, several in vitro runs with MXC and BaP using suspensions of either freshly isolated or cryopreserved hepatocytes from common carp and rainbow trout were carried out. For the different in vitro runs non-pooled hepatocytes were used, i.e. hepatocytes from different individual fish. For each run, triplicates of live cells (3 × 1 ml at nominal 2 × 10^6 cells/mL) and heat-inactivated cells as controls were dosed with the test chemical dissolved in acetonitrile (ACN) at the targeted concentration (2 µM for MXC and 0.5 µM for BaP) and incubated for 4 h at 15 °C (trout) or 20 °C (carp). MXC and BaP reactions were run side by side in the same in vitro run using the same hepatocyte suspensions. […]
Measured values of parent chemical concentration were log10-transformed and plotted against time. […]

[1] = cryopreserved trout hepatocytes
[2] = freshly isolated trout hepatocytes

| SMILES | Mean in vitro intrinsic clearance (CLin vitro, int) [1] [mL/h/10^6 cells] | Mean in vitro intrinsic clearance (CLin vitro, int) [2] [mL/h/10^6 cells] |
| --- | --- | --- |
| c1ccc2c(c1)cc1ccc3cccc4ccc2c1c34 [BaP, benzo[a]pyrene] | 0.243 | 0.251 |
| COc1ccc(C(c2ccc(OC)cc2)C(Cl)(Cl)Cl)cc1 [MXC, methoxychlor] | 0.283 | 0.250 |
